# From patent US20120115852A1, “HETEROCYCLIC COMPOUNDS AS AUTOTAXIN INHIBITORS” (Merck Patent Gesellschaft Mit Beschrankter Haftung, priority 2009, published 2012)
# Target: T1, recombinant autotaxin (Homo sapiens, UniProt Q13822)
# T1 construct: made in house; host or cells: Hi5 insect cells (baculovirus)
# Test: Autotaxin test (enzyme test), Amplex Red fluorescence with LPC substrate
# Format: biochemical
# Details: autotaxin inhibition (enzyme test); for remaining activity at 10 µM: 10 μM compound, read-out: % Control at 10 μM
# How it was run: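 Purified recombinant autotaxin (baculovirus Hi5-expressed) pre-incubated with compound 30 min at 22° C, then LPC (final 75 μM) added and reacted 90 min at 37° C in Tris pH 8 buffer with CaCl2. Choline released was coupled via alkaline phosphatase, choline oxidase and peroxidase to Amplex Red; resorufin fluorescence read in kinetic mode (ex 485/em 612 nm).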
compound,measurement,value
"CC(C)[C@H](N)C(=O)N1CCN2C(=O)c3cc(-c4ccc(Cl)cc4F)ccc3NC(=O)[C@H]2C1 [Compound A63, (R)-2-((S)-2-Amino-3-methylbutyryl)-7-(4-chloro-2-fluorophenyl)-1,3,4,11a-tetrahydro-2H,10H-2,4a,10-triazadibenzo[a,d]cycloheptene-5,11-dione]",remaining activity at 10 µM,67%
same,IC50,> 1 µM
O=C1Nc2ccc(-c3ccc(Cl)cc3)cc2C(=O)N2CCN(C(=O)Oc3ccccc3)CC12 (stereo not shown) [Compound A167],remaining activity at 10 µM,26%
same,IC50,> 1 µM
"CC(C)(C)[C@H](O)C(=O)N1CCN2C(=O)c3cc(-c4ccc(Cl)cc4F)ccc3NC(=O)[C@@H]2C1 [Compound A64, (S)-7-(4-Chloro-2-fluorophenyl)-2-((S)-2-hydroxy-3,3-dimethylbutyryl)-1,3,4,11a-tetrahydro-2H,10H-2,4a,10-triazadibenzo[a,d]cycloheptene-5,11-dione]",remaining activity at 10 µM,31%
same,IC50,> 1 µM
"Cn1cc(CCC(=O)N2CCN3C(=O)c4cc(-c5ccc(Cl)cc5F)ccc4NC(=O)[C@H]3C2)cn1 [Compound A97, (R)-7-(4-Chloro-2-fluorophenyl)-2-[3-(1-methyl-1H-pyrazol-4-yl)propionyl]-1,3,4,11a-tetrahydro-2H,10H-2,4a,10-triazadibenzo[a,d]cycloheptene-5,11-dione]",remaining activity at 10 µM,19%
same,IC50,0.1 to 1 µM
COc1ccc(-c2ccc3c(c2)C(=O)N2CCN(C(=O)CC(C)(C)C)C[C@@H]2C(=O)N3)cc1 [Compound B25],remaining activity at 10 µM,47%
same,IC50,> 1 µM
O=C1Nc2ccc(-c3ccc(Cl)cc3)cc2CN2CCN(C(=O)[C@@H]3CCCN3C3CCNCC3)CC12 (stereo partly shown) [Compound A176],remaining activity at 10 µM,63%
same,IC50,> 1 µM
"CC(C)(C)CC(=O)N1CCN2C(=O)c3cc(-c4ccc(Cl)c(F)c4)ccc3NC(=O)C2C1 (stereo not shown) [Compound A94, 7-(4-Chloro-3-fluorophenyl)-2-(3,3-dimethylbutyryl)-1,3,4,11a-tetrahydro-2H,10H-2,4a,10-triaza-dibenzo[a,d]cycloheptene-5,11-dione]",remaining activity at 10 µM,-18%
same,IC50,> 1 µM
CC(C)(C)CC(=O)N1CCN2C(=O)c3cc(-c4ccc(Cl)cc4F)ccc3N(CCN3CCOCC3)C(=O)[C@H]2C1 [Compound A148],remaining activity at 10 µM,10%
same,IC50,> 1 µM
"CC(C)(C)[C@H](O)C(=O)N1CCN2C(=O)c3cc(-c4ccc(Cl)cc4F)ccc3NC(=O)C2C1 (stereo partly drawn) [Compound A60, 7-(4-Chloro-2-fluorophenyl)-2-((S)-2-hydroxy-3,3-dimethylbutyryl)-1,3,4,11a-tetrahydro-2H,10H-2,4a,10-triazadibenzo[a,d]cycloheptene-5,11-dione]",remaining activity at 10 µM,-27%
same,IC50,0.1 to 1 µM
"CC(C)(C)[C@H](NC1CCNCC1)C(=O)N1CCN[C@@H](C(=O)Nc2ccc(-c3ccc(Cl)cc3F)cc2C(=O)O)C1 [Compound 47, 4′-chloro-4-({(R)-4-[(S)-3,3-dimethyl-2-(piperidin-4-ylamino)-butyryl]piperazine-2-carbonyl}amino)-2′-fluorobiphenyl-3-carboxylic acid]",remaining activity at 10 µM,8%
same,IC50,0.1 to 1 µM
"CC(C)(C)CC(=O)N1CCN2C(=O)c3cc(-c4ccc(Cl)cc4)cnc3NC(=O)C2C1 (stereo not shown) [Compound A139, 3-(4-Chlorophenyl)-8-(3,3-dimethylbutyryl)-7,8,9,9a-tetrahydro-6H,11H-1,5a,8,11-tetraazadibenzo-[a,d]cycloheptene-5,10-dione]",remaining activity at 10 µM,45%
same,IC50,> 1 µM
CC(C)(CC(=O)O)CC(=O)N1CCN2C(=O)c3cc(-c4ccc(Cl)cc4)ccc3NC(=O)[C@H]2C1 [Compound B8],remaining activity at 10 µM,70%
"O=C1Nc2ccc(-c3ccc(Cl)cc3)cc2C(=O)N2CCN(C(=O)Cc3ccccn3)CC12 (stereo not shown) [Compound A29, 7-(4-Chlorophenyl)-2-(2-pyridin-2-ylacetyl)-1,3,4,11a-tetrahydro-2H,10H-2,4a,10-triaza-dibenzo[a,d]cycloheptene-5,11-dione]",remaining activity at 10 µM,51%
same,IC50,> 1 µM
O=C1Nc2ccc(-c3ccc(Cl)cc3)cc2C(=O)N2CCN(C(=O)C3CCNCC3)C[C@H]12 [Compound B5],remaining activity at 10 µM,64%
"CC(C)(C(=O)N1CCN2C(=O)c3cc(-c4ccc(Cl)cc4F)ccc3NC(=O)C2C1)c1ccccc1 (stereo not shown) [Compound A58, 7-(4-Chloro-2-fluorophenyl)-2-(2-methyl-2-phenyl-propionyl)-1,3,4,11a-tetrahydro-2H,10H-2,4a,10-triazadibenzo[a,d]cycloheptene-5,11-dione]",remaining activity at 10 µM,-27%
same,IC50,> 1 µM
CC(C)(C)CC(=O)N1CCN2C(=O)c3cc(-c4ccc(Cl)cc4F)ccc3N(CC3CCNCC3)C(=O)C2C1 (stereo not shown) [Compound A147],remaining activity at 10 µM,62%
same,IC50,> 1 µM
"O=C1Nc2ccc(-c3ccc(Cl)cc3F)cc2C(=O)N2CCN(C(=O)[C@@H]3CCCN3C3CCNCC3)CC12 (stereo partly drawn) [Compound A99, 7-(4-Chloro-2-fluorophenyl)-2-((S)-1-piperidin-4-yl-pyrrolidine-2-carbonyl)-1,3,4,11a-tetrahydro-2H,10H-2,4a,10-triazadibenzo[a,d]cycloheptene-5,11-dione]",remaining activity at 10 µM,19%
same,IC50,> 1 µM
CC(C)(C)CC(=O)N1CCN2C(=O)c3cc(-c4ccc(Cl)cc4F)ccc3N(CCC3CCNCC3)C(=O)C2C1 (stereo not shown) [Compound A146],remaining activity at 10 µM,10%
same,IC50,> 1 µM
"COc1ccc(-c2ccc3c(c2)C(=O)N2CCN(C(=O)c4cccc(F)c4)C[C@@H]2C(=O)N3)cc1 [Compound A11, (R)-2-(3-Fluorobenzoyl)-7-(4-methoxyphenyl)-1,3,4,11a-tetrahydro-2H,10H-2,4a,10-triaza-dibenzo[a,d]cycloheptene-5,11-dione]",remaining activity at 10 µM,69%
"CC(C)(C)[C@H](N)C(=O)N1CCN2C(=O)c3cc(-c4ccc(Cl)cc4)ccc3NC(=O)C2C1 (stereo partly drawn) [Compound A137, 2-((S)-2-Amino-3,3-dimethylbutyryl)-7-(4-chloro-phenyl)-1,3,4,11a-tetrahydro-2H,10H-2,4a,10-triazadibenzo[a,d]cycloheptene-5,11-dione]",remaining activity at 10 µM,-18%
same,IC50,> 1 µM
"O=C1Nc2ccc(-c3ccc(Cl)cc3F)cc2C(=O)N2CCN(C(=O)[C@H]3NCC[C@@H]3O)CC12 (stereo partly drawn) [Compound A69, 7-(4-Chloro-2-fluorophenyl)-2-((2S,3S)-3-hydroxy-pyrrolidine-2-carbonyl)-1,3,4,11a-tetrahydro-2H,10H-2,4a,10-triazadibenzo[a,d]cycloheptene-5,11-dione]",remaining activity at 10 µM,58%
CS(=O)(=O)N1CCN2C(=O)c3cc(-c4ccccc4F)ccc3NC(=O)[C@H]2C1 [Compound B1],remaining activity at 10 µM,75%
"O=C1Nc2ccc(-c3ccc(Cl)cc3)cc2C(=O)N2CCN(C(=O)C(O)c3cccc(C(F)(F)F)c3)CC12 (stereo not shown) [Compound A45, 7-(4-Chlorophenyl)-2-[2-hydroxy-2-(3-trifluoro-methylphenyl)acetyl]-1,3,4,11a-tetrahydro-2H,10H-2,4a,10-triazadibenzo[a,d]cycloheptene-5,11-dione]",remaining activity at 10 µM,61%
same,IC50,> 1 µM
"COCCN1C(=O)C2CN(C(=O)CC(C)(C)C)CCN2C(=O)c2cc(-c3ccc(Cl)cc3)ccc21 (stereo not shown) [Compound A135, 7-(4-Chlorophenyl)-2-(3,3-dimethylbutyryl)-10-(2-methoxyethyl)-1,3,4,11a-tetrahydro-2H,10H-2,4a,10-triazadibenzo[a,d]cycloheptene-5,11-dione]",remaining activity at 10 µM,-9%
same,IC50,> 1 µM
